Data on 9 compounds can be found in US9138421B2, “Platinum compounds for treating cell proliferative diseases, preparation method and use thereof” (priority 2011, dated 2015).

In one series the test system is lung cancer H292. Nature of the series: MTT cytotoxicity, lung cancer H292. The series is classed as cell-based. As to conditions: n = 6. The procedure:
(§1) The toxic action of Embodiment platinum containing compounds was observed on tumor cells by MTT colorimetric method. Several kinds of tumor cells in exponential growth phase were prepared into single cell suspension, inoculated on 96 pore plat at the density of 4×10^4/hole, cultivated for 24 hours to enable to adhere to wall with 1640 culture medium containing 10% fetal calf serum (complete medium) at 37° C.; the final culture volume was 100 μl. Cell morphology was observed after culture for 24 hours.

A further series concerns testis cell ST. Nature of the series: MTT cytotoxicity, testis cell ST. The series is classed as cell-based. As to conditions: n = 6. As for the experimental part: as §1
The subject of series [1] is lung cancer Lewis cell line. Briefly: In vivo antitumor activity, lung cancer Lewis in nude mice. As to conditions: 15 mg/kg, every 2 days, 4 times, end 30 days after inoculation.
The test system of the next series is gastric cancer MGC803. Briefly: MTT cytotoxicity, gastric cancer MGC803. The series is classed as cell-based. As to conditions: n = 6. As for the experimental part: as §1
The subject of another series is esophagus cancer ECA109. Nature of the series: MTT cytotoxicity, esophagus cancer ECA109. Type of series: cell-based. The following applies: n = 6. As for the experimental part:
as §1

Series [2] has as its system colon cancer SW480 cell line. Briefly: In vivo antitumor activity, colon cancer SW480 in nude mice (2), dose series. The following applies: 3 days, tumor weighed 24 hours after drug discontinuance.
The test system of series [3] is Pulmonary epithelial cell BEAS-2B. Nature of the series: MTT cytotoxicity, pulmonary epithelial cell BEAS-2B. The series is classed as cell-based. As to conditions: n = 6. As for the experimental part: as §1
Series [4] concerns colon cancer SW480 cell line. Nature of the series: In vivo antitumor activity, colon cancer SW480 in nude mice (1). As to conditions: SW480, 4 mg/kg, every other day, 4 times, tumor weighed after 10 days. An excerpt:
The calculation formula of tumor inhabitation rate is: […]

In a further series the test system is lung cancer Lewis. Nature of the series: MTT cytotoxicity, lung cancer Lewis. The following applies: n = 6. Type of series: cell-based. The procedure:
as §1

The test system of another series is colon cancer SW480. Nature of the series: MTT cytotoxicity, colon cancer SW480. Type of series: cell-based. The following applies: n = 6. The procedure:
as §1

The nature of another series: Solubility in water. The following applies: in water.
The next series deals with normal mice. Nature of the series: Acute toxic effect of platinum complex on normal mice (LD50). The series is classed as in vivo, Kunming mice. The following applies: single intravenous administration in 5% glucose, 14 days observation, Bliss method. The procedure:
Test 1: Acute Toxic Effect of Platinum Complex on Normal Mice
Embodiment platinum compound was dissolved with 5% glucose solution. […] Mortality and toxicity were observed after administration.

Series [5] deals with lung cancer H292 cell line. Briefly: In vivo antitumor activity, lung cancer H292 in nude mice. As to conditions: H292, 15 mg/kg, every 2 days, 4 times, end 30 days after inoculation.

Marks after values point to notes of the source that are not given here.

With “2-(2-diethylamine ethyl)-malonic.cis-1,4-(trans-2,3-cyclobutyl)-butanediamine platinum (II) phosphate [compound 26]”, the IC50 (commonly the point on the concentration scale where inhibition reaches its midpoint) in the series with lung cancer H292 stood at 136 µM; in the series on testis cell ST it was 312 µM; in the series with gastric cancer MGC803, 234 µM; in the series on esophagus cancer ECA109, 163 µM. In series [1], the “tumor inhibition rate (%)” value was 72.4 ± 16.78%.
Take `N.N.[Cl][Pt][Cl]` [cisplatin, Cis-dichlorodiamminoplatinum, reference compound]: the “tumor inhibition rate (%) (x ±SD)” value in series [2] (SW480, 3 mg/kg) is 62.9 ± 9.01%; in series [2] (SW480, 5 mg/kg), 71.1 ± 10.76%.
Regarding `CCCN(CCC)CCC1C(=O)[O][Pt]([NH2])([NH2])[O]C1=O.O=P(O)(O)O` [compound 7, 2-(2-di-n-propylamineethyl)-malonic-cis-diamino platinum (II) phosphate], the IC50 turned out to be 124 µM with lung cancer H292, 75 µM in [3], 128 µM with lung cancer Lewis and 51 µM in the series on colon cancer SW480. In addition, the “tumor inhibition rate (%) (x ±SD)” value in series [4] turned out to be 28.5 ± 7.65 %.
As for `CCN(CC)CCC1C(=O)[O][Pt]2([NH]C3CCC(CC3)[NH]2)[O]C1=O.O=P(O)(O)O` (stereo not drawn) [compound 27, [2-(2-diethylamine ethyl)-malonato].[cis-1,4-cyclohexyldiamine] platinum (II) phosphate], the 50% inhibitory concentration (IC50) with lung cancer H292 is 158 µM; with testis cell ST it was 360 µM; with gastric cancer MGC803, 453 µM; in the series on esophagus cancer ECA109, 350 µM. Besides, in series [1], the “tumor inhibition rate (%)” value is listed as 71.3 ± 10.54%. The solubility (in general, the dissolved amount per volume that the medium holds) in the series “Solubility in water” was found to be 145 mg/mL. Besides, in the series with normal mice, the LD50 value is on record as 0.729 mmol/kg.
For “[2-(2-amino ethyl)-malonato].[cis-(1,2-trans-cyclohexamethylene diamine)]platinum (II) phosphate [compound 9]”, the IC50 came out at 63 µM with lung cancer H292, 57 µM in series [3], 69 µM with lung cancer Lewis and 71 µM in the series on colon cancer SW480. Besides, in the series “Solubility in water”, the solubility came out at 275 mg/mL. The compound further registered an LD50 value in the series on normal mice of 0.724 mmol/kg. In series [5], the “tumor inhibition rate (%)” value is 79.2 ± 14.99 %.
As for “[2-(2-diethylamine ethyl)-malonato].[cis-1,3-(2,2-(4-oxacyclohexyl))-propyldiamine]platinum (II) phosphate [compound 28]”, the IC50 with lung cancer H292 came out at 99 µM; in the series on testis cell ST, 138 µM; in the series on gastric cancer MGC803, 162 µM; with esophagus cancer ECA109, 256 µM. For the same compound, in [1], the “tumor inhibition rate (%)” value came out at 73.3 ± 17.92%. In the series on normal mice, the LD50 value was 0.767 mmol/kg.
Consider “[2-(2-dimethylamine ethyl)-malonato].[cis-trans-1,2-diaminomethylcyclobutane]platinum (II) phosphate [compound 25]”, for which the 50% inhibitory concentration (IC50) is 53 µM in the series with lung cancer H292, 114 µM in the series on testis cell ST, 341 µM in the series with gastric cancer MGC803 and 196 µM in the series on esophagus cancer ECA109. In [1], the “tumor inhibition rate (%)” value came out at 80.1 ± 9.65 %. For the same compound, in the series with normal mice, the LD50 value was 0.520 mmol/kg.
For the compound “[2-(2-ethylamine ethyl)-malonato].[cis-(1,2-trans-cyclohexamethylene diamine)]platinum (II) phosphate [compound 12]”, the IC50 in the series with lung cancer H292 was determined as 241 µM; in series [3], 15 µM; in the series with lung cancer Lewis, 57 µM; in the series on colon cancer SW480, 203 µM. For the same compound, the solubility in the series “Solubility in water” is 221 mg/mL. In the series with normal mice, this compound showed an LD50 value of 0.609 mmol/kg. Also, the “tumor inhibition rate (%)” value in series [5] is 76.3 ± 20.67*^ %.
As for “[2-(3-di-n-propylamine propyl)-malonato].[cis-diamine] platinum (II) mesylate [compound 8]”, the IC50 in the series on lung cancer H292 was found to be 201 µM; in series [3], 49 µM; with lung cancer Lewis, 57 µM; in the series with colon cancer SW480, 20 µM. In addition, the “tumor inhibition rate (%) (x ±SD)” value in series [4] was determined as 29.7 ± 8.81 %; in series [2] (SW480, 3 mg/kg), 40.4 ± 5.02 %; in [2] (SW480, 5 mg/kg), 73.6 ± 9.18%; in [2] (SW480, 10 mg/kg) it was 74.4 ± 12.25%; in series [2] (SW480, 15 mg/kg), 82.8 ± 10.07 %. In the series on normal mice, the LD50 value worked out at 0.806 mmol/kg.
